Data set [1] relates to Prostaglandin E2 (PGE2). The data set is described as follows: Prostaglandin E2 (PGE2) measurement in aqueous humor, rabbit paracentesis model. Type of data set: in vivo. As to conditions: 0.1% topical; second paracentesis; group mean. How it is done:
Each rabbit was placed in a restraint device and tagged with the alphanumeric code. The formulations were instilled (50 μl) into the conjunctival sac of both eyes 180, 120, 90 and 30 min before the first paracentesis; then 15, 30, 90 min after the first paracentesis. To perform the first paracentesis the animals were anaesthetized by intravenous injection of 5 mg/kg Zoletil® (Virbac; 2.5 mg/kg tiletamine HCl and 2.5 mg/kg zolazepam HCl) and one drop of local anesthetic (Novesina®, Novartis) was administered to the eye. Anterior chamber paracentesis was performed with a 26 G needle attached to a tuberculin syringe; the needle was introduced into the anterior chamber through the cornea, taking care not to damage the tissues. Two hours after the first paracentesis, the animals were sacrificed with 0.4 ml Tanax® (Intervet International B.V.) and the second paracentesis was performed. About 100 μl of aqueous humor were removed at the second paracentesis. Aqueous humor was immediately split in four aliquots and stored at −80° C. until analysis. Then both eyes were enucleated and the iris-ciliary body was carefully excised, placed in polypropylene tubes, and stored at −80° C. until analysis.
For the quantitative determination of PGE2 in the aqueous humor we used the PGE2 Immunoassay kit (R&D Systems; Cat.No. KGE004; Lot.No. 240010). Eleven microliters or 16 μl of aqueous humor were diluted to 110 μl or 160 μl with the calibrator diluent solution provided with the kit. One hundred microliters of samples and of standards were load into a 96-well plate and recorded in a plate layout. Samples were treated following the assay procedure described in the kit. A microplate reader (GDV, Italy; model DV 990 B/V6) set at 450 nm (wavelength correction at 540 nm) was used for making the calibration and analyzing the samples.

Data set [2] relates to New Zealand White rabbits. The data set is described as follows: Intraocular pressure (IOP) in rabbits, topical dosing four times daily. Type of data set: in vivo. Particulars: 0.1% (Group A). How it is done:
Seventy-five rabbits underwent two weeks of IOP training to condition them for IOP measurement. IOP was determined for both eyes of each animal using a Medtronic Solan, Model 30 classic pneumatonometer. Proparacaine hydrochloride 0.5% (1 drop) was delivered to each eye prior to IOP measurement. A two-point diurnal curve was established: IOP was recorded on Monday, Wednesday, and Friday of each week, at 8 a.m. and 12 p.m., with a ±1 hour range for each of these times. The time of the measurements was recorded.
On Days 1-31, animals received daily topical doses of the appropriate test article into the right eye. Animals were dosed four times per day, with doses administered 2 hours apart. Doses were administered using a calibrated 50-μL pipette. The eyelids were held close for 10 seconds immediately following dosing. The time of each dose administration was recorded.
Intraocular pressure (“IOP”) was determined for both eyes of each animal on Days 3, 5, 10, 12, 16, 18, 22, 24, 26, 30, and 32. IOP was evaluated with a Medtronic Solan, Model 30 classic pneumatonometer. Proparacaine hydrochloride 0.5% (1 drop) was delivered to each eye prior to IOP measurement. IOP was measured on Monday, Wednesday, and Friday of each week. A two-point diurnal curve was established: IOP was recorded at 8 a.m. and 12 p.m. on Day 3, and at 8 a.m. and 2 p.m. on later days, with a ±1 hour range for each of these times. The time of the measurements was recorded.
Descriptive statistics were prepared for IOP data of each treatment group (left and right eyes separately) at each measurement interval. The statistics included the number of observations (“N”), mean, standard deviation (“STD”), and standard error (“SEM”). Statistical analyses were conducted on IOP results using Statistical Analysis Systems (SAS Institute, Inc., Cary, N.C., V8.0). Parameters were evaluated using analysis of variance/GLM Procedure followed by Tukey's Standardized Range Test (Tukey, 1985) for post hoc comparisons of group means. The level of significance was set at a probability of p<0.05 for all statistical procedures. Group IOP means were compared at each interval, with left and right eyes compared separately.

As to `C[C@@H]1C[C@H]2[C@@H]3CCC4=CC(=O)C=C[C@]4(C)[C@@]3(F)[C@@H](O)C[C@]2(C)[C@@]1(O)C(=O)CO` [dexamethasone, reference compound], in data set [1], the “Levels of PGE2 in aqueous humor, Mean” value came out at 2.263 ng/mL. The “Intraocular Pressure in Untreated Left Eyes (A.M. Readings), MEAN” value in data set [2] (Day 3) was 24.3 mmHg; in data set [2] (Day 5) it was 24.3 mmHg; in data set [2] (Day 10), 26.9 mmHg; in data set [2] (Day 12) it was 26.2 mmHg; in data set [2] (Day 16), 25.0 mmHg; in data set [2] (Day 18), 24.2 mmHg. The “Intraocular Pressure in Untreated Left Eyes (A.M. Readings), MEAN” value in data set [2] (Day 22) amounted to 25.0 mmHg; in data set [2] (Day 24) it was 23.6 mmHg; in data set [2] (Day 26), 23.7 mmHg; in data set [2] (Day 30) it was 24.0 mmHg; in data set [2] (Day 32), 25.5 mmHg; in data set [2] (Pre-Study) it was 24.4 mmHg.

Source of the values: patent publication US20080058373A1, “Compositions and Methods for Treating or Preventing Glaucoma or Progression Thereof” (priority 2006, published 2008).
